Laboratory results from patent US12617785B2, “Pyrrolo[2,3-b]pyridine-3-carboxamide compositions and methods for ameliorating hearing loss” (priority 2020, dated 2026).
Where a name gives a salt, the structure may show the parent alone.

Biological target: T1, Lats1 (Homo sapiens, UniProt O95835)
T1 construct: purchased Carna 01-123
T1 sequence (O95835 1-1130): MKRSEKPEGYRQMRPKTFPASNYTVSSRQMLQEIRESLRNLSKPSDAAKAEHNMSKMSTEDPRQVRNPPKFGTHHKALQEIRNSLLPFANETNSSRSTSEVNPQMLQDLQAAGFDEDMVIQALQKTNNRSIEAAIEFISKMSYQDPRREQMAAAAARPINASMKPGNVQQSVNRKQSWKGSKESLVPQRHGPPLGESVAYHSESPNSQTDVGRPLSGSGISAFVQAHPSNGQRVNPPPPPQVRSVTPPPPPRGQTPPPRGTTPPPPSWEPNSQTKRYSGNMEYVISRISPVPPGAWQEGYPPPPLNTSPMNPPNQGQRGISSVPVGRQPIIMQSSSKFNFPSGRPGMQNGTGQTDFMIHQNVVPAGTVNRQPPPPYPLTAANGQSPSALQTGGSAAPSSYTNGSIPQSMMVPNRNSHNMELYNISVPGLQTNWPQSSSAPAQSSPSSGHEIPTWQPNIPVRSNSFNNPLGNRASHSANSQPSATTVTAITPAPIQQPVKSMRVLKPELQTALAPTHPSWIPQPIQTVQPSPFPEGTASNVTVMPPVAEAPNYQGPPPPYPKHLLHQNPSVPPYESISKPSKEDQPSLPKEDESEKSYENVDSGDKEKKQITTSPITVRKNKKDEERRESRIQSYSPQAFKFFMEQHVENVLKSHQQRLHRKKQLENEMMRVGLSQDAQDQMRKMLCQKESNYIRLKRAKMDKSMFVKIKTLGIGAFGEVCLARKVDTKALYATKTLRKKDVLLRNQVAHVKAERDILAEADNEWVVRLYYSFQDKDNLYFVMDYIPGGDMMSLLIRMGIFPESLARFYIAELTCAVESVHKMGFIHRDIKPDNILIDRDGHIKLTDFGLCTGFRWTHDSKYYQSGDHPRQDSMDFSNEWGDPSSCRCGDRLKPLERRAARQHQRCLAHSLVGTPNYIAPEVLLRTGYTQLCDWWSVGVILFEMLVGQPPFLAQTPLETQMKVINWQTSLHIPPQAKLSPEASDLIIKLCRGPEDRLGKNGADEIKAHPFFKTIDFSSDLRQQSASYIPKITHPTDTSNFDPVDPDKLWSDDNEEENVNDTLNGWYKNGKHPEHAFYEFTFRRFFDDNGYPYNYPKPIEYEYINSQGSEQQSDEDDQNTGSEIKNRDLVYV
Assay: In vitro kinase assay (HTRF KinEASE-STK S1) Lats1, 2 mM ATP
Assay type: biochemical
Conditions: not given
Experimental: (§1) Reactions were conducted with 10 μM STK1 substrate and 10 μM ATP or 2 mM ATP as shown below. […] The enzyme, substrate, ATP, and test compound of the invention were combined in a low-volume 384-well plate and shaken for 50 min at room temperature, unless otherwise indicated. The reaction was stopped by adding the detection reagents, which were prepared at an 8:1 biotin:streptavidin ratio and shaking for 60 min at room temperature. All reactions were conducted in triplicate and a Synergy NEO (Biotek) was used to detect the signal.
Assay was carried out in a 384 well plate. Each drug dosage curve was done with 16 points of 3-fold dilutions in 100% DMSO, and triplicate.

Row | SMILES | IC50
1 | Cc1ccccc1-n1ccs/c1=N\C(=O)c1c[nH]c2ncccc12 [T19] | 0.3 nM
2 | COc1ccc(-n2ccs/c2=N\C(=O)c2c[nH]c3ncccc23)cc1 [T24] | 112 nM
3 | O=C(/N=c1\sccn1-c1ccc(Cl)cc1)c1c[nH]c2ncccc12 [T27] | 44.9 nM
4 | O=C(/N=c1\sccn1-c1ccccc1Br)c1c[nH]c2ncccc12 [T29] | 20.5 nM
5 | O=C(/N=c1\sccn1-c1ccccn1)c1c[nH]c2ncccc12 [T30] | 279 nM
6 | O=C(/N=c1\sccn1-c1cccnc1)c1c[nH]c2ncccc12 [T31] | 3800 nM
7 | NCc1ccccc1-n1ccs/c1=N\C(=O)c1c[nH]c2ncccc12 [T32] | 43 nM
8 | Nc1cc(-n2ccs/c2=N\C(=O)c2c[nH]c3ncccc23)ccn1 [T35] | 329 nM
9 | O=C(/N=c1\sccn1-c1ccc(CO)cc1)c1c[nH]c2ncccc12 [T36] | 60 nM
10 | O=C(O)CCn1ccs/c1=N\C(=O)c1c[nH]c2ncccc12 [T51, (Z)-3-(2-((1H-pyrrolo[2,3-b]pyridine-3-carbonyl)imino)thiazol-3(2H)-yl)propanoic acid] | 607 nM
11 | O=C(/N=c1\sccn1Cc1ccncc1)c1c[nH]c2ncccc12 [T52, (Z)—N-(3-(pyridin-4-ylmethyl)thiazol-2(3H)-ylidene)-1H-pyrrolo[2,3-b]pyridine-3-carboxamide] | 4880 nM
12 | O=C(/N=c1\sccn1Cc1cccnc1)c1c[nH]c2ncccc12 [T53, (Z)—N-(3-(pyridin-3-ylmethyl)thiazol-2(3H)-ylidene)-1H-pyrrolo[2,3-b]pyridine-3-carboxamide] | 1100 nM
13 | O=C(/N=c1\sccn1Cc1ccccn1)c1c[nH]c2ncccc12 [T54] | 11000 nM
14 | O=C(/N=c1\sccn1C1CCCCC1)c1c[nH]c2ncccc12 [T57, (Z)—N-(3-cyclohexylthiazol-2(3H)-ylidene)-1H-pyrrolo[2,3-b]pyridine-3-carboxamide] | 0.5 nM
15 | NC(=O)c1cccc(-n2ccs/c2=N\C(=O)c2c[nH]c3ncccc23)c1 [T60] | 418 nM
16 | NCc1cccc(-n2ccs/c2=N\C(=O)c2c[nH]c3ncccc23)c1 [T61, (Z)—N-(3-(3-(aminomethyl)phenyl)thiazol-2(3H)-ylidene)-1H-pyrrolo[2,3-b]pyridine-3-carboxamide] | 18.6 nM
17 | CC(C)c1cs/c(=N\C(=O)c2c[nH]c3ncccc23)n1Cc1ccccc1 [T69] | 168 nM
18 | O=C(/N=c1\scc(C(F)(F)F)n1Cc1ccccc1)c1c[nH]c2ncccc12 [T71] | 176 nM
19 | O=C(/N=c1\scc(CO)n1Cc1ccccc1)c1c[nH]c2ncccc12 [T72, (Z)—N-(3-benzyl-4-(hydroxymethyl)thiazol-2(3H)-ylidene)-1H-pyrrolo[2,3-b]pyridine-3-carboxamide] | 0.2 nM
20 | Cc1cs/c(=N\C(=O)c2c[nH]c3ncccc23)n1C1CCCCC1 [T74] | 0.2 nM
21 | O=C(/N=c1\sccn1C1CCNCC1)c1c[nH]c2ncccc12 [T75, (Z)—N-(3-(piperidin-4-yl)thiazol-2(3H)-ylidene)-1H-pyrrolo[2,3-b]pyridine-3-carboxamide hydrochloride] | 92.5 nM
22 | O=C(/N=c1\sccn1C1CCOCC1)c1c[nH]c2ncccc12 [T76] | 2190 nM
23 | CCOC(=O)c1cs/c(=N\C(=O)c2c[nH]c3ncccc23)n1Cc1ccccc1 [T79, Ethyl (2Z)-3-benzyl-2-(1H-pyrrolo[2,3-b]pyridine-3-carbonylimino)thiazole-4-carboxylate] | 22 nM
24 | CN(C)CCNC(=O)c1cs/c(=N\C(=O)c2c[nH]c3ncccc23)n1Cc1ccccc1 [T80, (Z)-3-Benzyl-N-[2-(dimethylamino)ethyl]-2-(1H-pyrrolo[2,3-b]pyridine-3-carbonylimino)thiazole-4-carboxamide] | 82 nM
25 | CN(C)C(=O)c1cs/c(=N\C(=O)c2c[nH]c3ncccc23)n1-c1ccccc1Cl [T82] | 20 nM

Same assay, conditions: 2 mM ATP; read-out: LATS1_HTRF_2 mM ATP IC50

Row | SMILES | IC50
26 | Cc1ccnc2[nH]cc(C(=O)/N=c3\sccn3Cc3ccccc3)c12 [T05] | 3260 nM
27 | Cc1cccc(-n2ccs/c2=N\C(=O)c2c[nH]c3ncccc23)c1 [T20] | 155 nM
28 | Cc1ccc(-n2ccs/c2=N\C(=O)c2c[nH]c3ncccc23)cc1 [T21] | 7.5 nM
29 | COc1ccccc1-n1ccs/c1=N\C(=O)c1c[nH]c2ncccc12 [T22] | 720 nM
30 | COc1cccc(-n2ccs/c2=N\C(=O)c2c[nH]c3ncccc23)c1 [T23] | 576 nM
31 | N#Cc1ccccc1-n1ccs/c1=N\C(=O)c1c[nH]c2ncccc12 [T28] | 194 nM
32 | O=C(/N=c1\sccn1CC1CCOCC1)c1c[nH]c2ncccc12 [T56] | 1020 nM
33 | Cn1cc(Cn2ccs/c2=N\C(=O)c2c[nH]c3ncccc23)cn1 [T59] | 6060 nM
34 | O=C(/N=c1\sccn1-c1ccc2c(c1)CNCC2)c1c[nH]c2ncccc12 [T62, (Z)—N-(3-(1,2,3,4-tetrahydroisoquinolin-7-yl)thiazol-2(3H)-ylidene)-1H-pyrrolo[2,3-b]pyridine-3-carboxamide] | 126 nM
35 | Cn1c(Cc2ccccc2)cs/c1=N\C(=O)c1c[nH]c2ncccc12 [T64] | 7860 nM
36 | O=C(/N=c1\sccn1-c1ccccc1Cl)c1c[nH]c2ncccc12 [T65] | 0.1 nM
37 | O=C(/N=c1\sccn1-c1cccc(Cl)c1)c1c[nH]c2ncccc12 [T66] | 193 nM
38 | CCc1cs/c(=N\C(=O)c2c[nH]c3ncccc23)n1Cc1ccccc1 [T68] | 59.5 nM
39 | Cc1cs/c(=N\C(=O)c2c[nH]c3ncccc23)n1CC1CCCCC1 [T73] | 0.8 nM
40 | Cc1co/c(=N\C(=O)c2c[nH]c3ncccc23)n1Cc1ccccc1 [T77, (Z)—N-(3-benzyl-4-methyloxazol-2(3H)-ylidene)-1H-pyrrolo[2,3-b]pyridine-3-carboxamide] | 107 nM
41 | O=C(/N=c1\occ(CO)n1Cc1ccccc1)c1c[nH]c2ncccc12 [T78, (Z)—N-(3-benzyl-4-(hydroxymethyl)oxazol-2(3H)-ylidene)-1H-pyrrolo[2,3-b]pyridine-3-carboxamide] | 1.6 nM
42 | CNC(=O)c1cs/c(=N\C(=O)c2c[nH]c3ncccc23)n1-c1ccccc1Cl [T81] | 3.67 nM

Biological target: T1, Lats1
Assay: In vitro kinase assay (HTRF KinEASE-STK S1) Lats1, 10 uM ATP
Assay type: biochemical
Conditions: 10 uM ATP; read-out: LATS1_HTRF_10 uM ATP IC50
Experimental: IVKA assay at 10 uM method:
as §1

Row | SMILES | IC50
43 | Cc1ccc2c(C(=O)/N=c3\sccn3Cc3ccccc3)c[nH]c2n1 [T02] | 5840 nM
44 | Cc1cnc2[nH]cc(C(=O)/N=c3\sccn3Cc3ccccc3)c2c1 [T03] | 148 nM
45 | Cc1[nH]c2ncccc2c1C(=O)/N=c1\sccn1Cc1ccccc1 [T04] | 159 nM
46 | O=C(/N=c1\sccn1Cc1ccccc1)c1c[nH]c2ncc(Cl)cc12 [T06] | 92.2 nM
47 | Cc1cn(Cc2ccccc2)/c(=N/C(=O)c2c[nH]c3ncccc23)s1 [T26] | 74.5 nM
48 | COC(=O)c1cccc(Cn2ccs/c2=N\C(=O)c2c[nH]c3ncccc23)c1 [T33] | 224 nM
49 | O=C(O)c1cccc(Cn2ccs/c2=N\C(=O)c2c[nH]c3ncccc23)c1 [T34] | 6250 nM
50 | Cn1ccs/c1=N\C(=O)c1c[nH]c2ncccc12 [T37, (Z)—N-(3-methylthiazol-2(3H)-ylidene)-1H-pyrrolo[2,3-b]pyridine-3-carboxamide] | 233 nM
51 | CCn1ccs/c1=N\C(=O)c1c[nH]c2ncccc12 [T38, (Z)—N-(3-ethylthiazol-2(3H)-ylidene)-1H-pyrrolo[2,3-b]pyridine-3-carboxamide] | 27 nM
52 | O=C(/N=c1\sccn1CCc1ccccc1)c1c[nH]c2ncccc12 [T40] | 88.7 nM
53 | N#Cc1ccccc1Cn1ccs/c1=N\C(=O)c1c[nH]c2ncccc12 [T42, (Z)—N-(3-(2-cyanobenzyl)thiazol-2(3H)-ylidene)-1H-pyrrolo[2,3-b]pyridine-3-carboxamide] | 12.9 nM
